The text below walks through data of US10125097B2, “1- [1-(benzoyl)-pyrrolidine-2-carbonyl]-pyrrolidine-2-carbonitrile derivatives” (UNIVERSITAT DE BARCELONA, priority 2012, dated 2018).

The IC50 is the concentration needed to halve the response being measured.

Data set [1] has as its target human prolyl oligopeptidase (Homo sapiens (Human), UniProt P48147). Kind of data set: POP inhibition assay (Z-G-P-AMC substrate, fluorimetric). The data set is classed as biochemical. The settings on record: Conditions B: 100 mM Tris-acetate, 10 mM BSA, 1 mM DTT, pH 7.3, hPOP 10 nM; read-out: IC50, inhibition of human prolyl oligopeptidase, measured in conditions B. As to the method:
Expression and Purification of Prolyl Oligopeptidase (POP)
POP was obtained by expression in E. coli and affinity purification using a His tail fusion according to a literature procedure (Tarragó T et al., ChemBioChem 2006; 7:827-33) summarized below:
hPOP expression: E. coli BL21 competent cells were transformed with pETM10 hPOP. To induce expression, a pre-culture of LB medium (50 mL) containing kanamycin (50 μg/mL) was inoculated with one colony and was grown overnight at 37° C. Next day, two cultures of LB medium (500 mL) were inoculated with the overnight culture (10 mL). The inoculated cultures were grown at 37° C. and 220 rpm until the OD595 was 1.2 (2.5-3 hours). IPTG was then added (final concentration of 1 mM) and induction was performed overnight at 25° C. Cells were harvested (3500 g, 15 min, 4° C.) and the pellet was suspended in suspension buffer (50 mL) [Tris-HCl pH 8 (50 mM), NaCl (300 mM), imidazole (1 mM)] and sonicated with use of four cycles (each consisting of 15 sec of sonication and 15 sec of rest) at an intensity of 50% and 0.5 pulses, the sample being kept on ice. After sonication, the sample was centrifuged (40 000 g, 30 min, 4° C.) and the supernatant was used immediately for POP purification. An ÁKTA explorer FPLC system was used for purification. The supernatant was applied at a flow of 1 mL/min to a HiTrapQuelating column (5 mL) previously equilibrated with 5 column volumes of suspension buffer. The column was washed with suspension buffer until the absorbance at 280 nm returned to basal level. The column was then rinsed with 5 volumes of washing buffer (50 mM Tris-HCl, pH 8, 300 mM NaCl, 30 mM imidazole). The elution was performed with 4 volumes of elution buffer (50 mM Tris-HCl, pH 8, 300 mM NaCl, 500 mM imidazole). Fractions (4 mL) were collected during the entire elution. POP activity was checked in all fractions and positive ones were analyzed by SDS-PAGE and stained with Biosafe Comassie Stain G-250. Positive fractions were collected and desalted by use of a HiPrep 26/10 Desalting column with Tris-HCl (50 mM, pH 8) as buffer. Recombinant hPOP was quantified with the Bio-Rad Protein Assay with BSA as standard. Aliquots of the recombinant enzyme were prepared and immediately frozen with liquid nitrogen and stored at −80° C.
POP activity was determined following the method described by Toide et al (Toide K et al., J. Pharmacol. Exp. Ther. 1995; 274:1370-8), using Z-G-P-AMC (N-benzyloxycarbonyl-Gly-Pro-methylcoumarinyl-7-amide) as POP substrate. The reactions were performed in 96-well microtiter plates, which allowed simultaneous monitoring of multiple reactions. For each reaction, activity buffer (134 μl, 100 mM Na/K phosphate buffer, pH 8.0) was pre-incubated for 15 min at 37° C. with hPOP (ranging from 20 to 60 nM, depending on the activity of the hPOP batch) and the corresponding new compound solution (3 μl). A stock solution of new compound was prepared in DMSO (100 mM), and dilutions were prepared from this stock solution with DMSO. Alternatively, the reactions were performed using another activity buffer (141 μL, 100 mM Tris-acetate, […], 1 mM DTT, pH 7.3), pre-incubating with hPOP (10 nM) and the corresponding new compound solution (3 μl) (Conditions B).
After preincubation, Z-G-P-AMC (10 μl, 3 mM in 40% 1,4-dioxane) was added (3 μl, 1.5 mM in 40% of 1,4-dioxane, in Conditions B), and the reaction was incubated for 1 hour at 37° C. The reaction was stopped by adding sodium acetate (150 μl, 1 M, pH 4) and the formation of AMC was measured fluorimetrically. The excitation and emission wavelengths were 360/40 and 485/20 nm, respectively.
Several concentration points (ranging from 25 μM to 400 μM) were measured for each compound. The inhibitory activity on prolyl oligopeptidase was calculated according to eq 1. For each new compound, the fluorescence in the presence (a) and in the absence of hPOP (b) was measured. […]

A short description of data set [2]: Parallel artificial membrane permeability assay (PAMPA). In kind it is in vitro ADME. The note with it: 200 μM initial concentration, pH 7.4, 4 hours, room temperature; for Papp at 4 h, 200 μM: PAMPA, read-out: Effective permeability Pe. How it is done:
Parallel artificial membrane permeability assay (PAMPA) described in Kansy M et al., J. Med. Chem. 1998; 41(7):1007-10 was used to determine the capacity of compounds to cross the Blood-Brain Barrier (BBB) by passive diffusion (Di L et al., Eur. J. Med. Chem. 2003; 38(3):223-32). The effective permeability (Pe) of the compounds was measured at an initial concentration of 200 μM. The buffer solution was prepared from a commercial concentrated one following the manufacturer's instructions. pH was adjusted to 7.4 using a 0.5 M NaOH solution. A stock solution of new compound was prepared in DMSO and diluted with buffer solution to a final 200 μM concentration (0.5% DMSO content). The PAMPA sandwich was separated and each donor well was filled with 200 μL of the compound solution. The acceptor plate was placed into the donor plate, ensuring that the underside of the membrane was in contact with buffer. 4 μL of the mixture of phospholipids (20 mg/mL) in dodecane was added to the filter of each well, and 200 μL of buffer solution was added to the each acceptor well. The plate was covered and incubated at room temperature in a saturated humidity atmosphere for 4 hours under orbital agitation at 100 rpm. After 4 hours, the contents of the acceptor and donor compartments were analyzed by HPLC: 150 μL of each well from the donor plate and 150 μL of each well from the acceptor plate were transferred to HPLC vials, injecting each sample into a reverse-phase C18 column (150 mm×4.6 mm×5 μm, 100 Å) (100 μL/injection from the acceptor wells, 10 μL/injection from the donor wells and for t0 references). Transport was also confirmed by MALDI-TOF spectrometry.
The phospholipid mixture used was a porcine polar brain lipid extract, provided by Avanti polar lipids, with the following composition: 12.6% phosphatidylcholine (PC), 33.1% phosphatidylethanolamine (PE), 18.5% phosphatidylserine (PS), 4.1% phosphatidylinositol (PI), 0.8% phosphatidic acid and 30.9% of other compounds.
The effective permeability (Pe) after 4 hours was calculated using equation 2 and the percentage of transport was calculated using equation 3:
[formula] wherein: t is time (h) CA(t) is the compound concentration in the acceptor well at time t and CD(to) is the compound concentration in the donor well at to.
On the technique in general: PAMPA measures passive passage across an artificial lipid membrane.

Another data set has as its target POP (Homo sapiens (Human), UniProt P48147). The settings on record: non-competitive POP inhibitor; Park D H et al., Fitoterapia 2010; read-out: IC50 (POP inhibition); cited from earlier work.

human prolyl oligopeptidase, sequence (P48147 whole entry): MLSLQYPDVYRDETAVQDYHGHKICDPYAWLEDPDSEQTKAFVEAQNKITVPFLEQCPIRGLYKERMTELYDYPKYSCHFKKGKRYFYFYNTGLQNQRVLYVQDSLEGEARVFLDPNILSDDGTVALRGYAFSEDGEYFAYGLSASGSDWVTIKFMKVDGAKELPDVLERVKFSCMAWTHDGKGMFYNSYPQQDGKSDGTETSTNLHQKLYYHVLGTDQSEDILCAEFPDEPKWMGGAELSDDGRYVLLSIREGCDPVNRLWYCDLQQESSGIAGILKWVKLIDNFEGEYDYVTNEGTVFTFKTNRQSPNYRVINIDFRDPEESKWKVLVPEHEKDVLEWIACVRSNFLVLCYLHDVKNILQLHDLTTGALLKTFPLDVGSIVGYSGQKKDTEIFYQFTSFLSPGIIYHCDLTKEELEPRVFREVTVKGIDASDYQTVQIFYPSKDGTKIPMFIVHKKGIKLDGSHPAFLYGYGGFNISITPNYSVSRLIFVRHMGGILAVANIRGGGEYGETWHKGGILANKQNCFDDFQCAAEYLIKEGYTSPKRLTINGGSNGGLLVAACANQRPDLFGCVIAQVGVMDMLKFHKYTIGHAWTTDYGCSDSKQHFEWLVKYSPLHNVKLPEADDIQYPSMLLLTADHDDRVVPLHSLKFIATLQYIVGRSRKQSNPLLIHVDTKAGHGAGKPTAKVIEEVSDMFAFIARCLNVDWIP
POP, sequence (P48147 whole entry): as above

With `N#C[C@@H]1CCCN1C(=O)[C@@H]1CC(F)(F)CN1C(=O)c1cccc(OCc2ccccc2)c1` [Example 18, (S)-1-((S)-1-(3-(benzyloxy)benzoyl)-4,4-difluoropyrrolidine-2-carbonyl)pyrrolidine-2-carbonitrile], the IC50 in data set [1] came to 487 nM. Moreover, in data set [2], the “% T (percentage of transport)” value turned out to be 11.91% and the Papp at 4 h, 200 μM was 6.51 ×10⁻⁶ cm/s.

As for `N#C[C@@H]1CCCN1C(=O)[C@@H]1CC(F)(F)CN1C(=O)c1ccccc1OCc1ccccc1` [Example 19, (S)-1-((S)-1-(2-(benzyloxy)benzoyl)-4,4-difluoropyrrolidine-2-carbonyl)pyrrolidine-2-carbonitrile], the concentration for half-maximal inhibition (IC50) in data set [1] was found to be 255 nM. Further, in data set [2], the “% T (percentage of transport)” value amounted to 17.55% and the Papp at 4 h, 200 μM is 10.3 ×10⁻⁶ cm/s.

For `N#C[C@@H]1CCCN1C(=O)[C@@H]1CC(F)(F)CN1C(=O)c1ccc(OCc2ccccc2)c(C(F)(F)F)c1` [Example 20, (S)-1-((S)-1-(4-(benzyloxy)-3-(trifluoromethyl)benzoyl)-4,4-difluoropyrrolidine-2-carbonyl)pyrrolidine-2-carbonitrile], the IC50 in data set [1] was 4.5 nM. In data set [2], the “% T (percentage of transport)” value is given as 2.64% and the Papp at 4 h, 200 μM came to 1.29 ×10⁻⁶ cm/s.

Turning to `N#C[C@@H]1CCCN1C(=O)[C@@H]1CC(F)(F)CN1C(=O)c1ccc(OCc2ccccc2)c(F)c1` [Example 21, (S)-1-((S)-1-(4-(benzyloxy)-3-fluorobenzoyl)-4,4-difluoropyrrolidine-2-carbonyl)pyrrolidine-2-carbonitrile], the concentration for half-maximal inhibition (IC50) in data set [1] was 5 nM. In data set [2], the “% T (percentage of transport)” value worked out at 10.43% and the Papp at 4 h, 200 μM is 5.57 ×10⁻⁶ cm/s.

With `O=C(/C=C/c1ccc(O)c(O)c1)O[C@H](Cc1ccc(O)c(O)c1)C(=O)O` [rosmarinic acid], the 50% inhibitory concentration (IC50) at POP was 63700 nM.
